Experimental data from paper PMC4290489, “Identification of multiple salicylic acid-binding proteins using two high throughput screens” (Frontiers in Plant Science, 2015).

What was measured:
HPR2 = molecular target: T1, HPR2 (Arabidopsis thaliana, UniProt Q9CA90); assay: UV photo-crosslinking, anti-SA immunoblot; assay type: binding; settings: 50 uM 4AzSA, PBS, on ice, 254 nm UV; covalent; competed by SA
T1 construct: N-terminal His6 (pET28a), from E. coli
T1 sequence (Q9CA90 1-313): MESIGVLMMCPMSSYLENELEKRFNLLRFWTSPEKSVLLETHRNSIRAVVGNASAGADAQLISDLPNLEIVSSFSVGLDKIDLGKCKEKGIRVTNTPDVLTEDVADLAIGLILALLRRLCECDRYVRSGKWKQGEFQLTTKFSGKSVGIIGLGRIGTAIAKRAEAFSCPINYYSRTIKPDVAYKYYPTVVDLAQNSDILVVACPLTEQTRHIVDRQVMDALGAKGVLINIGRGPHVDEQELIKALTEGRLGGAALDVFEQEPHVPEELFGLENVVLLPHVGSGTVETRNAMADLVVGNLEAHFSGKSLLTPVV

NPR1 = molecular target: T2, NPR1 (Arabidopsis thaliana, UniProt P93002); assay: UV photo-crosslinking, anti-SA immunoblot; assay type: binding; settings: 50 uM 4AzSA, PBS, on ice, 254 nm UV; covalent; competed by SA
T2 construct: N-terminal His6-MBP fusion (pET-MALHT), from E. coli, Ni-NTA and gel filtration
T2 sequence (P93002 1-593): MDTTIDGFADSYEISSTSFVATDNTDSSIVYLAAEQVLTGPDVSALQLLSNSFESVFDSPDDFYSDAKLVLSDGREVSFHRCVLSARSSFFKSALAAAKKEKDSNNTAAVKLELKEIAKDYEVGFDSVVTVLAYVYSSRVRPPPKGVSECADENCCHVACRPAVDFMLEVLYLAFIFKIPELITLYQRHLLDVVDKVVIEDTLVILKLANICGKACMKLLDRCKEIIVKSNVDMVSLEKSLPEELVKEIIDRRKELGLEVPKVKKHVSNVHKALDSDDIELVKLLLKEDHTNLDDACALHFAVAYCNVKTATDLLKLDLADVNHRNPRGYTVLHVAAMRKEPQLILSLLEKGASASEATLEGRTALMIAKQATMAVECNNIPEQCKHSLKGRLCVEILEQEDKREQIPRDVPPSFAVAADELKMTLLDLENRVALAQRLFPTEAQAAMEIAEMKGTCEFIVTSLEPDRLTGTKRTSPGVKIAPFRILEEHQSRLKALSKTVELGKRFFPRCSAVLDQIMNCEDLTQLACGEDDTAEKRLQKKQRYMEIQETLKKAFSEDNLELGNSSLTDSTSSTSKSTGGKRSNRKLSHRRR

SMILES: [N-]=[N+]=Nc1ccc(C(=O)O)c(O)c1 [4AzSA]
- UV photo-crosslinking, anti-SA immunoblot (HPR2): bound 3AESA and crosslinked to 4AzSA in an SA-inhibitable manner, indicating that they are SABPs
- UV photo-crosslinking, anti-SA immunoblot (NPR1): NPR1 bound and was crosslinked to 4AzSA; this crosslinking was suppressed by increasing levels of SA
